Here are results for 5 molecules from PMC9000469 (Molecules, 2022).

Each structure is given as a SMILES string. Several values for one entry are separate records, joined by “and”; a condition that tells them apart may be missing. Equal values may be shown once. Entries after “also recorded” stand apart in the source; their conditions may differ. Where a name gives a salt, the structure may show the parent alone. Read-outs that look alike come from different tables or passages of the source.

For data set [1] the following is noted: cited from earlier work.
Data set [2] can be described thus: Physicochemical properties of compounds (pKa, logP). The settings on record: internal data. The source says:
PA was obtained from Ethifarm (Ethifarm, Poznan, Poland). Reference substances CAF and NF were obtained from Sigma Aldrich (Merck Group, Darmstadt, Germany).

In data set [3] the test system is Caco-2 monolayer. The settings on record: previously published results, cited from earlier work.
A short description of data set [4]: Permeability across the PermeaPad 96-well plate biomimetic barrier. As to conditions: for Effect of medium pH (6.8 versus 7.4) on permeability across the PermeaPad barrier: Student t-test, p > 0.05; for Permeability across the PermeaPad barrier by passive diffusion (in words): pH 6.8 and 7.4; for Papp on the Permeapad membrane: pH not stated in the sentence (equals the pH 7.4 value of Figure 4). It is filed as in vitro ADME. The protocol:
The […]® 96-well plate was purchased from InnoME GmbH ([…], Germany). The plate consists of a bottom plate, a screen plate with a lipid barrier and a lid. The surface area for permeation studying is 0.15 cm^2. The permeability tests across a biomimetic barrier of drug substances were performed from the bottom to the top compartment. The compounds were dissolved in PBS with pH 6.8 or 7.4. […] The permeation tests for all compounds were performed at room temperature (25 °C). HPLC methods were used to determine the concentration of the compound transported. The apparent permeability coefficient (Papp) was calculated according to the protocol described by di Cagno et al..

Details of data set [5]: method as in PMID 25840123. The settings on record: concentration 5 mM; cited from earlier work.
In another data set the test system is Caco-2 cells. Description: MTT cytotoxicity assay in Caco-2 cells. The settings on record: 0.0–2.0 mg/mL, 2 h exposure. The protocol: After leaving them overnight, different concentrations of analyzed substances in HBSS pH 7.4 were added.. Cells were exposed to the substances for 2 h (time of transport across monolayer) in an incubator under optimal culture conditions. After incubation, the solution was removed and the mixture of DMEM cell culture medium and MTT (5 mg/mL) was added. Cells were incubated for 2 h, and then the resulting formazan crystals were dissolved in DMSO. The absorbance was measured using an Elx-800 absorbance microplate reader (Biotek, Winooski, VT, USA) at wavelength 540 nm.

For data set [6] the following is noted: conditions of high temperatures and relative humidity; cited from earlier work.
The conditions of data set [7]: cited from earlier work. The source holds these as a separate data set.
Another data set concerns PEPT2. Set-up: method as in PMID 19519280. As to conditions: cited from earlier work.
The test system of data set [8] is Caco-2 monolayer. As to conditions: for Papp across Caco-2 monolayer: basolateral to apical, 2 h, pH 7.4, 37 °C, mean ± SD, n = 3. Here is the method:
For the transport study, the Caco-2 cells were seeded at 4 × 10^5 cells/well on the permeable cell culture inserts with a 0.4 µm pore diameter (Millipore-Merck Group, Darmstadt, Germany) placed in 6-well plates. The cells were cultured for 22 days in the incubator under optimal culture conditions (37 °C, 5% CO2, and 95% air) to their spontaneity differentiating. The integrity of the monolayer was tested by measuring the Trans Epithelial Electrical Resistance (TEER) every 48 h using a Millicel ERS-2 Voltohmmeter (Millipore-Merck Group, Darmstadt, Germany). The cells’ monolayer with an average TEER value > 600 Ohm × cm^2 was considered to be suitable for permeability testing.
The permeability tests across the Caco-2 monolayer of substances were performed from basolateral to the apical compartment (B–A). Plates with cell culture inserts were incubated at 37 °C with shaking at 100 rpm for 2 h. Drug substances were dissolved in the transport buffer solution (HBSS with 25 mM HEPES, pH 7.4) and placed into a donor compartment. The solution volume in the apical and basolateral compartments was maintained at 2 mL and 4 mL, respectively. The samples (150 µL) from the acceptor compartment were taken at 15 min intervals and were replaced with fresh reheated (37 °C) buffer. The HPLC analysis described below was used to determine the concentration of the compound transported. Transport kinetics and the apparent permeability coefficient (Papp) were calculated according to the protocols described by Tavelin et al. and Hubatsch et al..
Concentrations of all compounds transported were determined by the reverse phase HPLC with UV-VIS detection. HPLC analysis was conducted on Waters UPLC Acquity H-class apparatus with Empower 3.0 software (Waters Corporation, Milford, MA, USA). […] The isocratic flow rate was set as 0.6 mL/min and the detection wavelength on λ = 215 nm.

A further data set deals with PEPT1. Set-up: method as in PMID 19519280. As to conditions: cited from earlier work.

For `CCC[C@H](N[C@@H](C)C(=O)N1[C@H](C(=O)O)C[C@@H]2CCCC[C@@H]21)C(=O)OCC` [perindopril], the “Fraction metabolized into perindoprilat during the first pass of the liver” value in [1] (oral administration, no ref printed with the sentence) is reported as 30–50%.

For `CCN(CC)CCOC(=O)C(Cc1cccc2ccccc12)CC1CCCO1` (stereo not shown) [NF, Naftidrofuryl oxalate], in data set [2], the pKa was determined as 4.1. Besides, in the data set with Caco-2 monolayer [3] (0.125 mg/mL), the “Papp through the Caco-2 monolayer” value is 84.1 ×10⁻⁶ cm/s. Further, in the data set on Caco-2 monolayer [3] (0.2 mg/mL), the “Papp through the Caco-2 monolayer” value is 78.8 ×10⁻⁶ cm/s. Also, in data set [4], the “Effect of medium pH (6.8 versus 7.4) on permeability across the PermeaPad barrier” value is given as “slightly lower permeability of NF in medium at pH 7.4”; the “Permeability across the PermeaPad barrier by passive diffusion (in words)” value is “relatively high and high”. Besides, the Papp at 4 h in [4] (not told, both 0.2 mg/mL and 0.125 mg/mL, read-out: Papp through the PermeaPad membrane, bound stated for both concentrations) is above 10 ×10⁻⁶ cm/s.

In the case of `CCC[C@H](N[C@@H](C)C(=O)N1[C@H](C(=O)O)C[C@@H]2CCCC[C@@H]21)C(=O)O` [Perindoprilat, perindoprilat], in data set [1] (after oral PA), the “Average bioavailability of the active metabolite” value is “about 25%”. The Mean half-life in data set [1] is 5 to 11 h.

In the case of `Cn1c(=O)c2c(ncn2C)n(C)c1=O` [CAF, caffeine], in [4], the “Effect of medium pH (6.8 versus 7.4) on permeability across the PermeaPad barrier” value is “no significant difference”. For the same molecule, the “Permeability across the PermeaPad barrier by passive diffusion (in words)” value in [4] is “highest transport”; in data set [4] (listed as Caffeine) it was “high permeable”. In addition, in data set [5], the “Papp in the PermeaPad barrier” value was 24 ×10⁻⁶ cm/s.

For the molecule `CCC[C@H](N[C@@H](C)C(=O)N1[C@H](C(=O)O)C[C@@H]2CCCC[C@@H]21)C(=O)OCC.N=C(N)NCCC[C@H](N)C(=O)O` [PA, Perindopril arginine], in [2], the “pKa (strongest acid)” value turned out to be 3.17 and the “pKa (strongest base)” value came to 5.67. Further, the logP in data set [2] (two values printed per compound without explanation) was 0.65 and 0.56. Besides, the “Cytotoxicity to the Caco-2 cell line (MTT)” value in the data set with Caco-2 cells is on record as “not cytotoxic; also recorded: No effect”. In [6], the “Shelf life and stability of the arginine salt compared with the erbumine salt” value was “greater shelf life and stability”. Further, in data set [7], the “Permeability (BCS characterisation)” value was “low permeability” and the “Permeability (characterisation)” value was “low permeability”. For the same molecule, the “Interaction with the intestinal peptide transporter PEPT2” value with PEPT2 is given as “relatively poor interaction”. In addition, the “Papp on the Permeapad membrane” value in [4] (1.0 mg/mL) was 35.7 ×10⁻⁶ cm/s. The “Papp on the Permeapad membrane” value in data set [4] (2.0 mg/mL) is 43.9 ×10⁻⁶ cm/s. Further, in data set [4], the “Effect of medium pH (6.8 versus 7.4) on permeability across the PermeaPad barrier” value is “did not affect; also recorded: no significant differences” and the “Permeability across the PermeaPad barrier by passive diffusion (in words)” value is “lowest permeability; also recorded: relatively low permeability”. In the data set with Caco-2 monolayer [8] (1.0 mg/mL), the “Compound Permeability (Caco-2 monolayer)” value is listed as “low (when Papp is lower than 1 × 10^−6 cm/s, the substance is considered poorly permeable)” and the “Papp across Caco-2 monolayer” value is 0.72 ± 0.04 × 10^−6 cm/s. Besides, the “Papp across Caco-2 monolayer” value in the data set on Caco-2 monolayer [8] (2.0 mg/mL) is listed as 1.94 ± 0.96 × 10^−6 cm/s. In addition, the “Time to peak plasma concentrations (absorption completed)” value in data set [1] (after oral administration) is “approximately 1 h”. Besides, in data set [1], the Absolute oral bioavailability is given as 75%. Also, the “Interaction with the intestinal peptide transporter PEPT1” value in the data set with PEPT1 was “relatively poor interaction”.
